The values below come from US11192849B2, “Compounds, compositions, and methods for modulating ferroptosis and treating excitotoxic disorders” (THE TRUSTEES OF COLUMBIA UNIVERSITY IN THE CITY OF NEW YORK, priority 2013, dated 2021).

Like-named read-outs stand apart in the source and are kept apart here. Marks after values point to notes of the source that are not given here.

Series [1] in a line: Metabolic stability in mouse liver microsomes. As to conditions: for half-life at 0.5 μM: mouse, liver microsomes. Type of series: in vitro ADME. The protocol: Test compounds (0.5 μM) were incubated at 37° C. for up to 45 minutes in 50 mM of potassium phosphate buffer (pH 7.4) containing mouse liver microsomal protein (0.5 mg/mL) and an NADPH generating system (0.34 mg/mL β-nicotinamide adenine dinucleotide phosphate (NADP), 1.56 mg/mL glucose-6-phosphate, 1.2 units/mL glucose-6-phosphate dehydrogenase). At 0, 5, 15, 30, and 45 minute intervals, an aliquot was taken and quenched with acetonitrile (ACN) containing internal standard. No-cofactor controls at 45 minutes were prepared. Following completion of the experiment, the samples were analyzed by LC-MS/MS.
The half-life (t1/2) was calculated using the following equation: t1/2=0.693/k Where, k is the elimination rate constant of test compounds obtained by fitting the data to the equation: C=initial×exp(−k×t) Intrinsic clearance (Clint) is calculated as liver clearance from the half-life using the following equation: […]
0.5 mg protein/mL incubation
Ethoxycoumarin was used as a control.
In general terms: Microsomes from liver hold many membrane-bound enzymes, among them those of drug oxidation.

Series [2] is described as follows: In vitro stability study in mouse plasma. The following applies: for Percent Remaining: 37° C. It is filed as in vitro ADME. The protocol: The assay was conducted by incubating 1 μM of test compounds with Mouse Plasma (Strain […]) for a series of incubation times (0, 15, 30, 60, 120 minutes) at various temperatures (wet ice, room temperature, or 37° C.) with 5% CO2 and shaking (130 rpm). At each time point, the samples were quenched with 200 μL of stop solution containing an internal standard and kept on ice. The samples were analysed by LC-MS/MS.

Series [3] relates to C57BL/6 mice, kidney ischemia-reperfusion injury. Kind of series: Kidney model of ischemia-reperfusion injury (IRI). Type of series: in vivo. The protocol:
As an initial in vivo study, the effects of Fer-1 and SRS16-86 on serum creatinine, a marker of kidney damage, were evaluated in an ischemia reperfusion injury (IRI) model of kidney failure (FIG. 21).
Organs were dissected as indicated in each experiment and infused with 4% (vol/vol) neutral-buffered formaldehyde, fixated for 48 h, dehydrated in a graded ethanol series and xylene, and finally embedded in paraffin. Stained sections were analyzed using an Axio Imager microscope (Zeiss). Kidney damage was quantified by two experienced pathologists in a double-blind manner on a scale ranging from 0 (unaffected tissue) to 10 (severe organ damage). The following parameters were chosen as indicative of morphological damage to the kidney after ischemia-reperfusion injury (IRI): brush border loss, red blood cell extravasation, tubule dilatation, tubule degeneration, tubule necrosis, and tubular cast formation. These parameters were evaluated on a scale of 0-10, which ranged from not present (0), mild (1-4), moderate (5 or 6), severe (7 or 8), to very severe (9 or 10). Each parameter was determined on at least four different animals.
Induction of kidney IRI was performed via a midline abdominal incision and a bilateral renal pedicle clamping for either 40 min (severe IRI, or “lethal-to-WT” IRI) or 50 min (ultra-severe IRI) using microaneurysm clamps (Aesculab). Throughout the surgical procedure, the body temperature was maintained between 36° C. and 37° C. by continuous monitoring using a temperature-controlled self-regulated heating system (Fine Science Tools). After removal of the clamps, reperfusion of the kidneys was confirmed visually. The abdomen was closed in two layers using standard 6-0 sutures. Sham-operated mice underwent the identical surgical procedures, except that microaneurysm clamps were not applied. To maintain fluid balance, all of the mice were supplemented with 1 mL of prewarmed PBS administered intraperitoneally directly after surgery. All mice were killed 48 h after reperfusion for each experiment. […] All ischemia-reperfusion experiments were performed in a double-blinded manner.

The test system of series [4] is HT1080 cells. In words: FACS (7AAD / annexin V) of erastin-treated HT1080 cells. It is filed as cell-based, human. As to conditions: 50 μM erastin, 1 μM compound. The protocol:
(§1) For induction of necroptosis, HT-29 cells were stimulated for 24 h at 37° C. with 100 ng/mL TNFα plus 1 μM Smac mimetics plus 25 μM zVAD as indicated (vehicle-treated cells served as control). For induction of ferroptosis, NIH and HT-1080 cells were each stimulated for 24 h at 37° C. with 50 μM erastin as indicated (vehicle-treated cells served as a control). For induction of apoptosis, Jurkat cells were stimulated for 4 h with 100 ng/mL monoclonal anti-Fas (clone 7C11; Immunotech). Anti-Fas-induced apoptosis of Jurkat cells was inhibited by further addition of 25 μM zVAD (vehicle-treated cells served as control).
(§2) Phosphatidylserine exposure to the outer cell membrane of apoptotic cells or at the inner plasma membrane of necrotic cells and incorporation of 7-AAD into necrotic cells were quantified by fluorescence-activated cell sorting (FACS) analysis. The ApoAlert annexin V-FITC antibody and the 7-AAD antibody were purchased from BD Biosciences.

For series [5], the system named is NIH 3T3 cells. In words: FACS (7AAD / annexin V) of erastin-treated NIH 3T3 cells. It is filed as cell-based, murine. As to conditions: 50 μM erastin, 1 μM compound. The protocol:
as §1, §2

Series [6] concerns freshly isolated murine renal tubules. In words: Synchronized necrosis of freshly isolated renal tubules (fatty-acid depletion / erastin). Type of series: cell-based, mouse. The following applies: in the presence of fatty acids. The protocol: Six to 12 mice were used for each isolated tubule preparation, depending on the amount of material needed for particular experiments. For preparation of isolated tubules, mice were anesthetized with ketamine (100 mg/kg i.p.) and xylazine (10 mg/kg i.p.), and the kidneys were immediately removed. Type I collagenase was from Worthington Biochemical. Percoll was purchased from Amersham Biosciences. All other reagents and chemicals, including delipidated BSA, were of the highest grade available from Sigma-Aldrich. […] The cortices were then dissected and minced on an ice-cold tile and then resuspended in additional solution A for 8-10 min of digestion at 37° C., followed by enrichment of proximal tubules using centrifugation on self-forming Percoll gradients. For Nec-1 studies in renal tubules, renal cortices were dissected in ice-cold dissection solution (DS) [HBSS with 10 mmol/L glucose, 5 mmol/L glycine, 1 mmol/L alanine, 15 mmol/L Hepes (pH 7.4); osmolality, 325 mOsmol/L] and sliced into 1-mm pieces. The fragments were transferred to collagenase solution (DS with 0.1% (wt/vol) type 2 collagenase and 96 μg/mL soybean trypsin inhibitor) and digested for 30 min at 37° C. and 61×g. After digestion, the supernatant was sieved through two nylon sieves: first 250-μm pore size and then 100-μm pore size. […]

As for `CC(C)(C)OC(=O)c1ccc(NC23CC4CC(CC(C4)C2)C3)c(/N=C\c2cncnc2)c1` [SRS16-86, tert-butyl 4-(adamantylamino)-3-(pyrimidin-5-ylmethyleneamino)benzoate], in series [1] (Mouse, Compound Conc = 0.5 μM), the “Elimination rate constant (k)” value was below 0.0048. The “Intrinsic Clearance (CLint) (mL/min/g liver)” value in series [1] (Mouse, Compound Conc = 0.5 μM) was <0.5* mL/min/g liver. The half-life at 0.5 μM in series [1] (pH 7.4, Mouse, Compound Conc = 0.5 μM, read-out: Half life (t½)) was above 1.5 h; in series [1] (pH 7.4, stated in the text of Example 15, read-out: T1/2 in mouse liver microsomes) it was above 2 h. The “Percent Remaining” value is 100.0% in series [2] (0 minutes); 82.2% in series [2] (15 minutes); 86.5% in series [2] (30 minutes); 83.9% in series [2] (60 minutes); 63.9% in series [2] (120 minutes). Also, the half-life at 1 μM in series [2] (C57BL/4, mouse, plasma, read-out: T1/2 in mouse plasma) is above 2 h. The “serum creatinine in IRI model of kidney failure” value in series [3] (2 mg/kg IP 30 minutes prior to induction of IRI) is given as “effective”. The “functional acute renal failure and structural organ damage after severe IRI” value in series [3] (40 min ischemia, 48 h after reperfusion, 2 mg/kg i.p.) is “protected from functional acute renal failure”. Besides, the “serum urea and serum creatinine in ultrasevere IRI, added to Nec-1+SfA” value in series [3] (50 min ischemia, Nec-1+SfA-treated mice, 2 mg/kg i.p.) was “reduced plasma levels of serum urea and serum creatinine”. Besides, the “ferroptosis-inhibiting ability (FACS)” value in series [4] and in series [5] was “active compound” each time. In addition, the tubular necrosis entry in series [6] is recorded as “prevented”.
